Measurements from patent US7214675B2, “Urea substituted imidazoquinoline ethers” (3M Innovative Properties Company, priority 2000, dated 2007).

Legend:
[1] = tested on: tumor necrosis factor (α) induction in human peripheral blood mononuclear cells (PBMC); assay: Cytokine induction in human cells: tumor necrosis factor (α) secreted by PBMC, ELISA or IGEN assay; type: cell-based; conditions: lowest concentration found to induce tumor necrosis factor, incubated 18 to 24 hours at 37° C.
Description: (§1) An in vitro human blood cell system is used to assess cytokine induction. Activity is based on the measurement of interferon and tumor necrosis factor (α) (IFN and TNF, respectively) secreted into culture media as described by Testerman et. al. In “Cytokine Induction by the Immunomodulators Imiquimod and S-27609”, Journal of Leukocyte Biology, 58, 365–372 (September, 1995).
(§2) Whole blood from healthy human donors is collected by venipuncture into EDTA vacutainer tubes. Peripheral blood mononuclear cells (PBMC) are separated from whole blood by density gradient centrifugation using Histopaque®-1077. Blood is diluted 1:1 with Dulbecco's Phosphate Buffered Saline (DPBS) or Hank's Balanced Salts Solution (HBSS). The PBMC layer is collected and washed twice with DPBS or HBSS and resuspended at 4×10^6 cells/mL in RPMI complete. The PBMC suspension is added to 48 well flat bottom sterile tissue culture plates (Costar, Cambridge, Mass. or Becton Dickinson Labware, Lincoln Park, N.J.) containing an equal volume of RPMI complete media containing test compound.
(§3) The compounds are solubilized in dimethyl sulfoxide (DMSO). The DMSO concentration should not exceed a final concentration of 1% for addition to the culture wells. The compounds are generally tested at concentrations ranging from 30–0.014 μM.
(§4) The solution of test compound is added at 60 μM to the first well containing RPMI complete and serial 3 fold dilutions are made in the wells. The PBMC suspension is then added to the wells in an equal volume, bringing the test compound concentrations to the desired range (30–0.014 μM). The final concentration of PBMC suspension is 2×10^6 cells/mL. The plates are covered with sterile plastic lids, mixed gently and then incubated for 18 to 24 hours at 37° C. in a 5% carbon dioxide atmosphere.
(§5) Following incubation the plates are centrifuged for 10 minutes at 1000 rpm (˜200×g) at 4° C. The cell-free culture supernatant is removed with a sterile polypropylene pipet and transferred to sterile polypropylene tubes. Samples are maintained at −30 to −70° C. until analysis. The samples are analyzed for interferon (α) by ELISA and for tumor necrosis factor (α) by ELISA or IGEN Assay
Tumor necrosis factor (α) (TNF) concentration is determined using ELISA kits available from Biosource International, Camarillo, Calif. Alternately, the TNF concentration can be determined by Origen® M-Series Immunoassay and read on an IGEN M-8 analyzer from IGEN International, Gaithersburg, Md. The immunoassay uses a human TNF capture and detection antibody pair from Biosource International, Camarillo, Calif. Results are expressed in pg/mL.
(§6) The table below lists the lowest concentration found to induce interferon and the lowest concentration found to induce tumor necrosis factor for each compound.

[2] = tested on: interferon (α) induction in human peripheral blood mononuclear cells (PBMC); assay: Cytokine induction in human cells: interferon (α) secreted by PBMC, ELISA; type: cell-based; conditions: lowest concentration found to induce interferon, incubated 18 to 24 hours at 37° C.
Description: as §1, §2, §3, §4, §5
Interferon (α) concentration is determined by ELISA using a Human Multi-Species kit from PBL Biomedical Laboratories, New Brunswick, N.J. Results are expressed in pg/mL.
as §6

| SMILES | melting point | minimal effective concentration [1] | minimal effective concentration [2] |
| --- | --- | --- | --- |
| CCOCc1nc2c(N)nc3ccccc3c2n1CCOCCNC(=O)Nc1ccccc1 [Example 53, N-(2-{2-[4-amino-2-(ethoxymethyl)-1H-imidazo[4,5-c]quinolin-1-yl]ethoxy}ethyl)-N′-phenylurea] | 183 to 186 °C |  |  |
| CCOCc1nc2c(N)nc3ccccc3c2n1CCOCCNC(=O)N1CCOCC1 [Example 55, N-(2-{2-[4-amino-2-(ethoxymethyl)-1H-imidazo[4,5-c]quinolin-1-yl]ethoxy}ethyl)morpholine-4-carboxamide] | 178 to 181 °C |  |  |
| Cc1nc2c(N)nc3ccccc3c2n1CCOCCNC(=O)Nc1ccccc1 [Example 48, N-{2-[2-(4-amino-2-methyl-1H-imidazo[4,5-c]quinolin-1-yl)ethoxy]ethyl}-N′-phenylurea] | 193 to 195 °C |  |  |
| CCOCc1nc2c(N)nc3ccccc3c2n1CCOCCNC(=O)NC1CCCCC1 [Example 54, N-(2-{2-[4-amino-2-(ethoxymethyl)-1H-imidazo[4,5-c]quinolin-1-yl]ethoxy}ethyl)-N′cyclohexylurea] | 161 to 164 °C |  |  |
| Cc1nc2c(N)nc3ccccc3c2n1CCOCCNC(=O)NC1CCCCC1 [Example 49, N-{2-[2-(4-amino-2-methyl-1H-imidazo[4,5-c]quinolin-1-yl)ethoxy]ethyl}-N′-cyclohexylurea] | 207 to 209 °C |  |  |
| CCc1nc2c(N)nc3ccccc3c2n1CCOCCNC(=O)N1CCOCC1 [Example 52, N-{2-[2-(4-amino-2-ethyl-1H-imidazo[4,5-c]quinolin-1-yl)ethoxy]ethyl}morpholine-4-carboxamide] | 182 to 184 °C |  |  |
| COCCc1nc2c(N)nc3ccccc3c2n1CCOCCN(C)C(=O)Nc1ccccc1 [Example 3, N-(2-{2-[4-amino-2-(2-methoxyethyl)-1H-imidazo[4,5-c]quinolin-1-yl]ethoxy}ethyl)-N-methyl-N′-phenylurea] | 184.8 to 185.8 °C | 0.37 µM | 0.01 µM |
